Reference: patent publication US5141865A, “Monoclonal antibodies which bind thromboxane A2 receptor antagonists and diagnostic methods based thereon” (priority 1989, dated 1992)

Test system: monoclonal antibody MCTX1
Assay: Competitive radioimmunoassay (RIA) with MCTX1 and radiolabel-1; standard curve and cross-reactivity
Type: binding, mouse
Settings: for percent cross-reactivity with MCTX1: ED50 of cross-reactant relative to ED50 of Compound I x 100, standards and cross-reactants in PBS
Method: Sera from immunized mice and media collected from wells containing HAT selected hybridomas were tested for the presence of antibodies recognizing Compound I by RIA. Undiluted media (50 μl) was incubated overnight at 4° C. with PBS (50 μl), normal human sera (50 μl) and [^125 I]-iodohistamine - Compound I (radiolabel-1) in PBS (200 μl, 50,000 CPM). After incubation, 1.0 ml of PEG 8000 (Fisher Scientific, Fairlawn, N.J.) (25% wt/vol) was added as separant; samples were centrigued at room temperature at 2000×g for 10 to 15 minutes and the supernatant decanted. Radioactivity associated with the precipitate was then determined using an APEX automatic gamma counter (ICN Micromedic Systems). Satisfactory zero binding and sensitivity were obtained after an overnight incubation at 4° C.
In order to assay samples for thromboxane A2 receptor antagonist, the same procedure was used, except that 50 μl of sample was used in place of the 50 μl of PBS.
In this regard, for construction of the standard curve and determination of cross-reactivity, standards and cross-reactants were prepared in PBS. Three cross-reactants were examined: the dinor and tetranor, possible metabolites of Compound I, and a related compound, Compound II, which lacks most of the omega side chain (Table 2).
To further characterize the specific structural features (epitope) within Compound I that are recognized by MCTX1, various derivatives of Compound I were tested for their cross-reactivity. The percent cross-reactivity was determined by dividing the ED50 of Compound I into the ED50 of the cross-reactants and multiplying the result by 100. […] Two potential metabolites of Compound I, the dinor and tetranor derivatives, had cross-reactivities of 66% and 17.6%, respectively. Both of these compounds have shortened alpha-side chains and no modifications in their omega-side chain. The extent of cross-reactivityof both alpha-side chain metabolites became less as the alpha-side chain became more truncated. […]

Compound: COC(=O)CCC=CCC1C2CCC(O2)C1CN (stereo not drawn) [Compound II]
- recognition by MCTX1 (cross-reactivity test) (cross-reactant prepared in PBS): not recognized by MCTX1

Compound: CCCCCCC(=O)NCC(=O)NCC1C2CCC(O2)C1CC=CCC(=O)O (stereo not drawn) [dinor]
- percent cross-reactivity with MCTX1: 66%

Compound: CCCCCCC(=O)NCC(=O)NC[C@H]1[C@@H](CCC(=O)O)[C@@H]2CC[C@H]1O2 [tetranor]
- percent cross-reactivity with MCTX1: 17.6%
